In PubChem BioAssay (NCI):
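1) Cells in 96-well plates. 2) Compound, 48 h, 5 concentrations. 3) Linear interpolation between surrounding doses. 4) Unreached endpoint = highest concentration. The concentration for full growth arrest is given as TGI.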

Columns and labels:
Assay in all cases: inhibition of tumour cell growth, NCI panel, 48 h
[1] = test system: EKVX NSCLC
[2] = test system: MALME-3M melanoma
[3] = test system: RPMI-8226 leukemia
[4] = test system: SN12C renal
[5] = test system: 786-0 renal
[6] = test system: A549 NSCLC
[7] = test system: OVCAR-4 ovarian
[8] = test system: BT-549 breast
[9] = test system: MDA-MB-435
[10] = test system: MDA-N
[11] = test system: NCI/ADR-RES ovarian

SMILES | TGI [1] | TGI [2] | TGI [3] | TGI [4] | TGI [5] | TGI [6] | TGI [7] | TGI [8] | TGI [9] | TGI [10] | TGI [11]
Clc1ccc2c(Cl)nc(-c3ccccc3)nc2c1 | 91.1 µM | > 100 µM | 55.3 µM | > 100 µM |  |  |  |  |  |  | 
COc1cc(O)c2c(c1O)C(=O)c1cc(C)ncc1C2=O | > 50 µM | 27.6 µM | > 50 µM | > 50 µM | > 50 µM | > 50 µM | > 50 µM |  |  |  | 
C=CCOCn1ccc(NC(=O)c2ccccc2)nc1=O | > 100 µM | > 100 µM | > 100 µM | > 100 µM | > 100 µM | > 100 µM |  | > 100 µM | > 100 µM | > 100 µM | 
COC(=O)C1=C(OC(=O)/C(=C/c2c(F)cccc2F)c2ccccc2)C(C(=O)OC)[C@@]2(O)[C@@H](C(=O)OC)[C@H](C)C[C@@H]1[C@@H]2C(=O)OC (stereo partly drawn) | > 100 µM | > 100 µM |  | > 100 µM | > 100 µM | > 100 µM | > 100 µM | > 100 µM | > 100 µM |  | > 100 µM
CN(C)c1ccc(/C=C2\N=C(c3ccccc3)N(/N=C3\C(=O)Nc4ccccc43)C2=O)cc1 | > 100 µM | > 100 µM |  | > 100 µM | > 100 µM | > 100 µM | > 100 µM | > 100 µM | 45.4 µM | > 100 µM | > 100 µM
CC1C(=O)CC[C@@]2(C)C(=O)CCCC12O (stereo partly drawn) | > 100 µM | > 100 µM | > 100 µM | > 100 µM | > 100 µM | > 100 µM | > 100 µM |  | > 100 µM | > 100 µM | > 100 µM
CN1CC(S(=O)(=O)c2ccccc2)CC(S(=O)(=O)c2ccccc2)C1c1ccccc1 (stereo not drawn) | 32.6 µM | 27.6 µM |  | 25.7 µM | 25.5 µM | > 100 µM | 34.5 µM | 28.5 µM | 28.3 µM | 28.8 µM | > 100 µM
COC(=O)c1cn(CCCCO)nn1 | > 100 µM | > 100 µM |  | > 100 µM | > 100 µM | > 100 µM | > 100 µM | > 100 µM | > 100 µM | > 100 µM | > 100 µM
O=C(Nc1ccc(N2C(=O)CSC2c2cccs2)cc1)c1ccc(N2C(=O)CSC2c2cccs2)cc1 (stereo not drawn) | > 100 µM | > 100 µM |  | > 100 µM | > 100 µM | > 100 µM | > 100 µM | > 100 µM | > 100 µM | > 100 µM | > 100 µM
CCOC(=O)NC(C(C(=O)OCC)C(=O)OCC)(C(F)(F)F)C(F)(F)F | > 100 µM | > 100 µM | > 100 µM | > 100 µM | > 100 µM | > 100 µM | > 100 µM |  | > 100 µM | > 100 µM | > 100 µM
NN/C(=N\S(=O)(=O)c1cccc2nsnc12)Nc1ccc(Cl)cc1 | > 100 µM |  | > 100 µM | > 100 µM | > 100 µM | > 100 µM | > 100 µM | > 100 µM |  | > 100 µM | > 100 µM
Nc1ccc(-c2nc3ccc(Cc4ccc5nc(-c6ccc(N)cc6)oc5c4)cc3o2)cc1 |  | > 100 µM | > 100 µM | > 100 µM | > 100 µM | > 100 µM | > 100 µM |  | > 100 µM | > 100 µM | > 100 µM
COC(=O)CCSC1=CC(=O)c2nc3ccccc3c3ccnc1c23 | 40.7 µM |  | > 100 µM | 40.7 µM | 40.2 µM | > 100 µM | 41.9 µM | 33 µM | > 27.5 µM | 87.2 µM | 46.6 µM
CN(C)C(=O)C(F)(F)C(c1ccc(C(F)(F)F)cc1)C1C(=O)N(C)C(=O)N(C)C1=O (stereo not drawn) | > 100 µM |  | > 100 µM |  | > 100 µM | > 100 µM | > 100 µM | > 100 µM | > 100 µM |  | > 100 µM
Nc1ccn(CC(CO)CC(c2ccccc2)P(=O)(O)O)c(=O)n1 (stereo not drawn) | > 100 µM | > 100 µM | > 100 µM | > 100 µM | > 100 µM | > 100 µM |  |  |  |  | 
ClCCCC1COc2ccccc2O1 (stereo not drawn) | > 100 µM | > 100 µM |  | > 100 µM | > 100 µM | > 100 µM | > 100 µM | > 100 µM |  | > 100 µM | > 100 µM
COc1ccc(/C(Cl)=C(\CNc2ccccn2)c2ccccc2)cc1OC | > 100 µM | > 100 µM | > 100 µM | > 100 µM | > 100 µM | > 100 µM | > 100 µM |  | > 100 µM | > 100 µM | > 100 µM
O=C1CCCCCCCCCCC1CN(Cc1ccccc1)Cc1ccccc1 (stereo not drawn) | > 100 µM | 75.2 µM | > 100 µM | > 100 µM | > 100 µM | > 100 µM | > 100 µM | > 100 µM | > 100 µM | > 100 µM | 
COc1ccc(N2C(=O)C3c4[nH]c5cc(Cl)ccc5c4C4CCC(C(C)(C)C)CC4C3C2=O)cc1 (stereo not drawn) | > 100 µM |  | > 100 µM | > 100 µM | > 100 µM | > 100 µM | > 100 µM | > 100 µM | > 100 µM | > 100 µM | > 100 µM
N#Cc1nc(C2SCCCS2)oc1N | > 100 µM |  | > 100 µM | > 100 µM | > 100 µM | > 100 µM | > 100 µM |  | > 100 µM | > 100 µM | 
CCCC(=O)[O-].CCCC(=O)[O-].N.N.N.N.[Co+3].[O-][Cl+3]([O-])([O-])[O-] | > 100 µM | > 100 µM | > 100 µM | > 100 µM | > 100 µM | > 100 µM | > 100 µM |  |  |  | 
Cc1ccc(-c2n[nH]c(=O)n2N2C(=O)C=CC2=O)cc1 | > 100 µM | > 100 µM |  | > 100 µM | > 100 µM | > 100 µM | > 100 µM | > 100 µM | > 100 µM |  | > 100 µM
COC1CC(n2ccc(=O)[nH]c2=O)OC1CO (stereo not drawn) | > 100 µM | > 100 µM |  | > 100 µM | > 100 µM | > 100 µM | > 100 µM |  | > 100 µM | > 100 µM | > 100 µM
